Laboratory results from patent US20210309669A1, “Heterocyclic Spiro Compounds As MAGL Inhibitors” (Pfizer Inc., priority 2018, published 2021).
Where two headings read alike, the source gives them in different places.

Tests used:
[1] = In vitro intrinsic clearance in human liver microsomes (HLM); assay type: in vitro ADME; settings: pH 7.4, 1 μM substrate, NADPH, 37° C., read-out: HLM CLint, app
Procedure: Test Compounds (Example 1-3 and Comparative-Compounds 1-4) were prepared as solutions in DMSO. The final concentration of DMSO in the incubation was <0.1% (v/v). […] (all final concentrations) in a 384-well plate. The reaction mixture was pre-warmed at 37° C. for 10 min prior to initiation of the incubation. The incubation was quenched with acetonitrile containing internal standards at the following time points: 1, 4, 7, 12, 20, 25, 45, and 60 min (individual incubation plates per time point) with a subsequent addition of water. The samples were vortexed followed by centrifugation and the supernatant was analyzed by LC/MS-MS using multiple reaction monitoring. For control experiments, NADPH was omitted from the incubations.
The microsomal t½ (min) was obtained from a log-linear plot of the substrate depletion versus incubation time and was scaled to hepatic intrinsic clearance (CLint,app (μL/min/mg protein) using the following equation: […]

[2] = biological target: T1, human recombinant Monoacylglycerol Lipase (Homo sapiens, UniProt Q99685); test: MAGL inhibition enzymatic assay (7-HCA fluorogenic substrate); assay type: biochemical; settings: geometric mean
T1 sequence (Q99685 1-303): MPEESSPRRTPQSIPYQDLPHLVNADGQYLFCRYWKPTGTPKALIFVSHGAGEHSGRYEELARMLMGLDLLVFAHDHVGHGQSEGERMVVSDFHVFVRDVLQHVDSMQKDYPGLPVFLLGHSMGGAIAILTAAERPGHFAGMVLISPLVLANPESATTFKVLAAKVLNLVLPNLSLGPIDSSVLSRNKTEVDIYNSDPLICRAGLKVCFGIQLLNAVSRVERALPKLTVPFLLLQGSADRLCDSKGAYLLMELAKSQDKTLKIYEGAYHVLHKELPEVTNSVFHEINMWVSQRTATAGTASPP
Procedure: Assessment of MAGL inhibition utilizes human recombinant Monoacylglycerol Lipase and the fluorogenic substrate 7-hydroxycoumarinyl arachidonate (7-HCA, Biomol ST-502). 400 nL of a test compound at decreasing concentration (ranging from 150 μM down to 1.5 nM) was spotted into a 384-well back plate (PerkinElmer, 6007279) using a Labcyte Echo, followed by addition of 10 μL of MAGL enzyme in assay buffer (50 mM HEPES, pH 7.4, 100 mM NaCl, 5 mM MgCl2, 0.1% Triton X-100 and 25% glycerin). An equal volume of 7-HCA in assay buffer with 10% DMSO was added either immediately (T=0 min) or after a 30 minute incubation (T=30 min) to initiate the reaction. The final concentration of MAGL enzyme was […] and 7-HCA substrate was 5 μM. After these dilutions, the final concentration of the test compound ranged from 3 μM to 0.03 nM. The reaction was allowed to progress for 60 minutes, after which the plate was read at an Ex/Em of 340/465. Percent inhibitions were calculated based on control wells containing no compound (0% inhibition) and a control compound (e.g., a MAGL inhibitor whose activity is known or was previously reported in the literature, such as one with about 100% inhibition). IC50 values were generated based on a four parameter fit model using ABASE software from IDBS. See e.g., Wang, Y. et al., “A Fluorescence-Based Assay for Monoacylglycerol Lipase Compatible with Inhibitor Screening,” Assay and Drug Development Technologies, 2008, Vol. 6 (3) pp 387-393 (reporting an assay for measuring MAGL activity).

human recombinant FAAH = biological target: T2, human recombinant FAAH (Homo sapiens, UniProt O00519); test: FAAH inhibition enzymatic assay (Arachidonoyl-AMC substrate); assay type: biochemical; settings: 30 minute incubation; geometric mean; read-out: FAAH (T = 30 min) IC50
T2 construct: purchased Cayman 10010183
T2 sequence (O00519 1-579): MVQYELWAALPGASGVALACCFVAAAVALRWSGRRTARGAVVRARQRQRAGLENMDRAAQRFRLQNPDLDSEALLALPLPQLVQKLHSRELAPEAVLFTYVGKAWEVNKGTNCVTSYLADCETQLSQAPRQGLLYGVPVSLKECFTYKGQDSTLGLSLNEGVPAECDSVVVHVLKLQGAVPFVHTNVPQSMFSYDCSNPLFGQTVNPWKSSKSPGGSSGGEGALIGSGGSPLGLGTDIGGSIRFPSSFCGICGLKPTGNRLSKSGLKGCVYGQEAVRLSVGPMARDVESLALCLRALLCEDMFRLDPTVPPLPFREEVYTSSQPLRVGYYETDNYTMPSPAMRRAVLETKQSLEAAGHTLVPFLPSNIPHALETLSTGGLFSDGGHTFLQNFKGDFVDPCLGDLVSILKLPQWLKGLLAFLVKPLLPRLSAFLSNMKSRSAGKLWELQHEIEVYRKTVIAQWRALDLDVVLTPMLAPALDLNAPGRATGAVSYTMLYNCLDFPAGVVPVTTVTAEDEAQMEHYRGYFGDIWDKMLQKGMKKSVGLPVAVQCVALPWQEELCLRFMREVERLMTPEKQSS
Procedure: Assessment of FAAH inhibition utilizes human recombinant FAAH and the fluorescent substrate, Arachidonoyl-AMC. 400 nL of a test compound at decreasing concentrations was spotted into a 384-well back plate (PerkinElmer, 6007279) using a Labcyte Echo, followed by addition of 10 μl of FAAH enzyme (Cayman 10010183) in assay buffer (50 mM Tris, pH 9.0, 1 mM EDTA, i.e. ethylenediaminetetraacetic acid). After a 30 minute incubation at room temperature, 10 μL of Arachidonyl-AMCA was added in assay buffer with 16% DMSO. […] The reaction was allowed to progress for 60 minutes, after which the plate was read on a Molecular Devices FlexStation reader at an Ex/Em of 355/460. Percent inhibitions were calculated based on controls wells containing either no compound (0% inhibition) or a control compound (e.g., an FAAH inhibitor whose activity is known or was previously reported in the literature, such as one with about 100% inhibition). IC50 values were generated based on a four parameter fit model using ABASE software from IDBS.

[3] = 30 minute incubation before substrate, read-out: MAGL (T = 30 min) IC50
[4] = substrate added immediately (T=0 min), read-out: MAGL (T = 0 min) IC50

| Compound | microsomal CLint at 1 μM [1] | IC50 [2, 3] | IC50 [2, 4] | IC50 (human recombinant FAAH) |
| --- | --- | --- | --- | --- |
| O=C(OC(C(F)(F)F)C(F)(F)F)N1CCC2(CC1)C[C@@H](NS(=O)(=O)CC1CC1)CO2 [Example 1, 1,1,1,3,3,3-Hexafluoropropan-2-yl (3R)-3-{[(cyclopropylmethyl)sulfonyl]amino}-1-oxa-8-azaspiro[4.5]decane-8-carboxylate] | < 8 µL/min/mg | 27.6 nM | 292 nM | > 30000 nM |
| O=C(OC(C(F)(F)F)C(F)(F)F)N1CCC2(CC1)C[C@@H](NS(=O)(=O)C1CC1)CO2 [Example 2, 1,1,1,3,3,3-Hexafluoropropan-2-yl (3R)-3-[(cyclopropylsulfonyl)amino]-1-oxa-8-azaspiro[4.5]decane-8-carboxylate] | < 8 µL/min/mg | 34.7 nM | 369 nM | > 30000 nM |
| O=C(OC(C(F)(F)F)C(F)(F)F)N1CCC2(CCC(NS(=O)(=O)CC3CC3)CO2)CC1 (stereo not drawn) [Example 3, 1,1,1,3,3,3-Hexafluoropropan-2-yl 3-{[(cyclopropylmethyl)sulfonyl]amino}-1-oxa-9-azaspiro[5.5]undecane-9-carboxylate] | < 8 µL/min/mg | 28.5 nM | 298 nM | > 30000 nM |
